# In patent US10316021B2, “Heteroarylphenoxy benzamide kappa opioid ligands” (Pfizer Inc., priority 2016, dated 2019):
# Entries after “also recorded” stand apart in the source; their conditions may differ. Like-named read-outs stand apart in the source and are kept apart here.
# Key:
# [1] = target: T1, human kappa opioid receptor (hKOR) (Homo sapiens, UniProt P41145); experiment: Kappa radioligand binding assay ([3H]diprenorphine, CHO cell membranes); conditions: for Selectivity hMOR/hKOR: selectivity ratio calculated by dividing the hMOR Ki by the hKOR Ki
# T1 construct: expressed in transfected cells; host or cells: CHO cells
# T1 sequence (P41145 whole entry): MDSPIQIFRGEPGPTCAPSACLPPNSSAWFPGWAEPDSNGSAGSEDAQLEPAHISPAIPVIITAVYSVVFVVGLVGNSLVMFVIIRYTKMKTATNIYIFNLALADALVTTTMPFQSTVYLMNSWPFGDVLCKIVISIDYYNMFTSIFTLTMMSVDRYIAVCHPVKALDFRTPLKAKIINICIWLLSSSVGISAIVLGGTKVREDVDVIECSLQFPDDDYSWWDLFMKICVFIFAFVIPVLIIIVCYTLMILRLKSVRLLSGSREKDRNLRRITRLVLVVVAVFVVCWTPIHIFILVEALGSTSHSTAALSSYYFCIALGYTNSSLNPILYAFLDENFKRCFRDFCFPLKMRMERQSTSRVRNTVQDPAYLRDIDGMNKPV
# Experimental: (§1) Kappa and Mu Radioligand Binding Assay:
# (§2) Binding assays on membranes from CHO cells expressing human kappa or mu opioid receptors were performed according to standard procedures. Frozen cell paste was homogenized in 50 mM Tris HCl buffer (pH 7.4 @ 4 degrees C.) containing 2.0 mM MgCl2 using a Polytron and spun in a centrifuge at 40,000 g for ten minutes. The final pellet was resuspended in assay buffer (50 mM Tris HCl buffer, pH 7.4, containing 1 mM EDTA, 5 mM MgCl2). Incubations were initiated by the addition of membranes to 96-well plates containing test drugs and [^3H]diprenorphine (0.6 nM final concentration for kappa opioid receptor and 0.5 nM final concentration for mu) in a final volume of 250 μl. Non-specific binding was determined by radioligand binding in the presence of a saturating concentration of naltrexone (10 μM). After a one hour incubation period at room temperature, assay samples were rapidly filtered through PEI coated, GF/B fired Unifilter plates (PerkinElmer) and rinsed with ice-cold 50 mM Tris buffer (pH 7.4). Membrane bound [^3H]diprenorphine levels were determined by liquid scintillation counting of the filterplates in Ecolume scintillation fluid. The IC50 value (concentration at which 50% inhibition of specific binding occurs) was calculated using a logistic 4 parameter fit model of the concentration-response data. Ki values were calculated according to the Cheng Prusoff equation, Ki=IC50/(1+(L/Kd)), where L is the concentration of the radioligand used in the experiment and the Kd value is the dissociation constant for the radioligand (determined previously by saturation analysis).
# [2] = target: T2, human mu opioid receptor (hMOR) (Homo sapiens, UniProt P35372); experiment: Mu radioligand binding assay ([3H]diprenorphine, CHO cell membranes)
# T2 construct: expressed in transfected cells; host or cells: CHO cells
# T2 sequence (P35372 whole entry): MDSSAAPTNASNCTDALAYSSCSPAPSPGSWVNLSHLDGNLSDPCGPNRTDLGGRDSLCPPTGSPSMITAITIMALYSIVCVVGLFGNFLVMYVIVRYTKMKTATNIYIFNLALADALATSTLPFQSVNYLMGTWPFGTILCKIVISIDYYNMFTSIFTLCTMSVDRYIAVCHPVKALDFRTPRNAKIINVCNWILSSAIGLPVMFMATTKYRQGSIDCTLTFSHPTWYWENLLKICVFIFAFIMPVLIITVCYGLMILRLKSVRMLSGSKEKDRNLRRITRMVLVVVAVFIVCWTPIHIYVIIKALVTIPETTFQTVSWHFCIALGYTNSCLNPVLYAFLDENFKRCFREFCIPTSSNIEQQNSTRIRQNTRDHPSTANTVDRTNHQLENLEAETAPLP
# Experimental: as §1
# as §2, with “The IC50 value (concentration at which 50% inhibition of specific binding occurs) was calculated using a logistic 4 parameter fit model of the concentration-response data.” left out
# [3] = Table 19, geometric mean of 2-6 determinations unless otherwise indicated (Example 3: >=7), read-out: hKOR binding assay Ki
# [4] = Table 19, geometric mean of 2-6 determinations unless otherwise indicated (Example 3: >=7), read-out: hMOR binding assay Ki
# [5] = radioligand binding, [3H]diprenorphine, read-out: hKOR Ki
# [6] = radioligand binding, [3H]diprenorphine, read-out: hMOR Ki
# [7] = Table 20, radioligand binding, read-out: hKOR binding assay Ki
# [8] = Table 20, radioligand binding, read-out: hMOR binding assay Ki
"Ki [1, 3]","Ki [2, 4]","Ki [1, 5]",SMILES,further results
0.027 µM,0.108 µM,–,"Cc1nn(C)cc1C1CCCN1Cc1ccc(Oc2ccc(C(N)=O)c(O)c2)cc1 (single isomer, unassigned; (+)) [Example 17, (+)-4-(4-{[2-(1,3-Dimethyl-1H-pyrazol-4-yl)pyrrolidin-1-yl]methyl}phenoxy)-2-hydroxybenzamide]",–
0.00176 µM,0.0636 µM,–,"Cc1nn(C)cc1C1CCCN1Cc1ccc(Oc2ccc(C(N)=O)c(O)c2)cc1 (single isomer, unassigned; (-)) [Example 18, (−)-4-(4-{[2-(1,3-Dimethyl-1H-pyrazol-4-yl)pyrrolidin-1-yl]methyl}phenoxy)-2-hydroxybenzamide]",–
0.00169 µM,0.0522 µM,–,"COc1nn(C)cc1C1CCCN1Cc1ccc(Oc2ccc(C(N)=O)c(O)c2)cc1 (single isomer, unassigned) [Example 33, 2-hydroxy-4-(4-{[2-(3-methoxy-1-methyl-1H-pyrazol-4-yl)pyrrolidin-1-yl]methyl}phenoxy)benzamide]",–
–,–,0.263 µM,"COc1nn(C)cc1C1COCCN1Cc1ccc(Oc2ccc(C(N)=O)cc2)c(F)c1 (single isomer, unassigned) [enantiomer of Example 22, 4-(2-fluoro-4-{[3-(3-methoxy-1-methyl-1H-pyrazol-4-yl)morpholin-4-yl]methyl}phenoxy)benzamide]","Ki [2, 6]: > 0.564 µM"
0.000688 µM,0.116 µM,–,"Cc1nn(C)nc1C1CCCN1Cc1ccc(Oc2ccc(C(N)=O)cc2)cc1 (single isomer, unassigned) [Example 38, 4-(4-{[2-(2,5-dimethyl-2H-1,2,3-triazol-4-yl)pyrrolidin-1-yl]methyl}phenoxy)benzamide]","selectivity for KOR over MOR, in words [1]: more selective than the phenyl examples, Comparators A and B; Ki [1, 7]: 0.0007 µM; Selectivity hMOR/hKOR [1]: 168; Ki [2, 8]: 0.116 µM"
0.000567 µM,0.0146 µM,–,"COc1nn(C)cc1C1CCCCN1Cc1ccc(Oc2ccc(C(N)=O)cc2)cc1 (single isomer, unassigned) [Example 21, 4-(4-{[2-(3-methoxy-1-methyl-1H-pyrazol-4-yl)piperidin-1-yl]methyl}phenoxy)benzamide]",–
0.000871 µM,0.0202 µM,–,"Cc1nn(C)cc1C1CCCN1Cc1ccc(Oc2ccc(C(N)=O)cc2)c(F)c1 (racemic) [Example 1, (+/−)-4-(4-{[2-(1,3-Dimethyl-1H-pyrazol-4-yl)pyrrolidin-1-yl]methyl}-2-fluorophenoxy) benzamide]",–
–,–,> 0.388 µM,"Cc1nsc(C2CCCN2Cc2ccc(Oc3ccc(C(N)=O)cc3)cc2)n1 (single isomer, unassigned) [enantiomer of Example 41, 4-(4-{[2-(3-methyl-1,2,4-thiadiazol-5-yl)pyrrolidin-1-yl]methyl}phenoxy)benzamide]","Ki [2, 6]: > 0.558 µM"
0.004 µM,0.218 µM,–,"Cc1nc([C@@H]2CCCN2Cc2ccc(Oc3ccc(C(N)=O)cc3)cc2)ns1 [Example 10, 4-(4-{[(2S)-2-(5-Methyl-1,2,4-thiadiazol-3-yl)pyrrolidin-1-yl]methyl}phenoxy)benzamide]","KOR potency, in words [1]: good potency; selectivity for KOR over MOR, in words [1]: good potency and selectivity; also recorded: more selective than the phenyl examples, Comparators A and B; Ki [1, 7]: 0.004 µM; Selectivity hMOR/hKOR [1]: 54; Ki [2, 8]: 0.218 µM"
0.0027 µM,0.391 µM,–,"Cc1nn(C)cc1C1CC(F)CN1Cc1ccc(Oc2ccc(C(N)=O)cc2)cc1 (single isomer, unassigned) [Example 25, 4-(4-{[2-(1,3-dimethyl-1H-pyrazol-4-yl)-4-fluoropyrrolidin-1-yl]methyl}phenoxy) benzamide]",–
0.139 µM,0.299 µM,–,Cc1cc(C2CCCN2Cc2ccc(Oc3ccc(C(N)=O)cc3F)cc2)no1 (stereo not drawn) [Example 40],"KOR potency, in words [1]: low KOR potency; Ki [1, 7]: 0.139 µM; Selectivity hMOR/hKOR [1]: 2.2; Ki [2, 8]: 0.299 µM"
–,–,0.000629 µM,"COc1nn(C)cc1C1CCCN1Cc1ccc(Oc2ccc(C(N)=O)cc2)c(F)c1 (single isomer, unassigned) [enantiomer of Example 32, 4-(2-fluoro-4-{[2-(3-methoxy-1-methyl-1H-pyrazol-4-yl)pyrrolidin-1-yl]methyl}phenoxy)benzamide]","Ki [2, 6]: 0.0137 µM"
–,–,0.0287 µM,"COc1nn(C)cc1C1CCCN1Cc1ccc(Oc2ccc(C(N)=O)c(O)c2)cc1 (single isomer, unassigned) [enantiomer of Example 33, 2-hydroxy-4-(4-{[2-(3-methoxy-1-methyl-1H-pyrazol-4-yl)pyrrolidin-1-yl]methyl}phenoxy)benzamide]","Ki [2, 6]: 0.308 µM"
0.000999 µM,0.0135 µM,–,"Cn1ccc([C@@H]2CCCN2Cc2ccc(Oc3ccc(C(N)=O)cc3F)cc2)n1 [Example 19, 3-fluoro-4-(4-{[(2S)-2-(1-methyl-1H-pyrazol-3-yl)pyrrolidin-1-yl]methyl}phenoxy)benzamide]",–
0.0145 µM,0.127 µM,–,Cc1cc(C2CCCN2Cc2ccc(Oc3ccc(C(N)=O)cc3F)cc2)nn1C (stereo not drawn) [Example 44],"selectivity for KOR over MOR, in words [1]: unacceptably lower levels of selectivity (MOR/KOR); Ki [1, 7]: 0.0145 µM; Selectivity hMOR/hKOR [1]: 9; Ki [2, 8]: 0.127 µM"
0.00571 µM,0.196 µM,–,"COc1nn(C)cc1C1CCCN1Cc1ccc(Oc2ccc(C(N)=O)cc2F)cc1 (racemic) [Example 7, (+/−)-3-Fluoro-4-(4-{[2-(3-methoxy-1-methyl-1H-pyrazol-4-yl)pyrrolidin-1-yl]methyl}phenoxy)benzamide]",–
–,–,0.0155 µM,"COc1nn(C)cc1C1CCCCN1Cc1ccc(Oc2ccc(C(N)=O)cc2)cc1 (single isomer, unassigned) [enantiomer of Example 21, 4-(4-{[2-(3-methoxy-1-methyl-1H-pyrazol-4-yl)piperidin-1-yl]methyl}phenoxy)benzamide]","Ki [2, 6]: 0.135 µM"
0.00322 µM,0.0733 µM,–,"COc1nn(C)cc1C1COCCN1Cc1ccc(Oc2ccc(C(N)=O)cc2)cc1 (single isomer, unassigned) [Example 23, 4-(4-{[3-(3-methoxy-1-methyl-1H-pyrazol-4-yl)morpholin-4-yl]methyl}phenoxy)benzamide]",–
0.0168 µM,0.0736 µM,–,"Cc1nn(C)cc1C1CCCN1Cc1ccc(Oc2ccc(C(N)=O)cc2F)cc1 (single isomer, unassigned) [Example 5, 4-(4-{[2-(1,3-Dimethyl-1H-pyrazol-4-yl)pyrrolidin-1-yl]methyl}phenoxy)-3-fluorobenzamide]",–
0.0858 µM,2.73 µM,> 0.1 µM,"Cc1nsc(C2CCCN2Cc2ccc(Oc3ccc(C(N)=O)cc3)cc2)n1 (single isomer, unassigned) [Example 41, 4-(4-{[2-(3-methyl-1,2,4-thiadiazol-5-yl)pyrrolidin-1-yl]methyl}phenoxy)benzamide]","Selectivity hMOR/hKOR [1]: 32; Ki [2, 8]: 2.73 µM"
–,–,> 0.119 µM,"Cc1nn(C)nc1C1CCCN1Cc1ccc(Oc2ccc(C(N)=O)cc2)cc1 (single isomer, unassigned) [enantiomer of Example 38, 4-(4-{[2-(2,5-dimethyl-2H-1,2,3-triazol-4-yl)pyrrolidin-1-yl]methyl}phenoxy)benzamide]","Ki [2, 6]: 0.252 µM"
0.000498 µM,0.0106 µM,–,"COc1nn(C)cc1C1CC(C)CN1Cc1ccc(Oc2ccc(C(N)=O)cc2F)cc1 (single isomer, unassigned) [Example 29, 3-fluoro-4-(4-{[2-(3-methoxy-1-methyl-1H-pyrazol-4-yl)-4-methylpyrrolidin-1-yl]methyl}phenoxy)benzamide]",–
0.0232 µM,0.15 µM,–,"COc1n[nH]cc1C1CCCN1Cc1ccc(Oc2ccc(C(N)=O)cc2)cc1 (single isomer, unassigned; (+)) [Example 15, (+)-4-(4-{[2-(3-Methoxy-1H-pyrazol-4-yl)pyrrolidin-1-yl]methyl}phenoxy)benzamide]",–
